The values that follow come from ChEMBL document CHEMBL1201862, “PubChem BioAssay data set” (2004).

In experiment [1] the target is T1, Histone-lysine N-methyltransferase NSD2 (Homo sapiens, UniProt O96028).
T1 sequence (O96028 whole entry): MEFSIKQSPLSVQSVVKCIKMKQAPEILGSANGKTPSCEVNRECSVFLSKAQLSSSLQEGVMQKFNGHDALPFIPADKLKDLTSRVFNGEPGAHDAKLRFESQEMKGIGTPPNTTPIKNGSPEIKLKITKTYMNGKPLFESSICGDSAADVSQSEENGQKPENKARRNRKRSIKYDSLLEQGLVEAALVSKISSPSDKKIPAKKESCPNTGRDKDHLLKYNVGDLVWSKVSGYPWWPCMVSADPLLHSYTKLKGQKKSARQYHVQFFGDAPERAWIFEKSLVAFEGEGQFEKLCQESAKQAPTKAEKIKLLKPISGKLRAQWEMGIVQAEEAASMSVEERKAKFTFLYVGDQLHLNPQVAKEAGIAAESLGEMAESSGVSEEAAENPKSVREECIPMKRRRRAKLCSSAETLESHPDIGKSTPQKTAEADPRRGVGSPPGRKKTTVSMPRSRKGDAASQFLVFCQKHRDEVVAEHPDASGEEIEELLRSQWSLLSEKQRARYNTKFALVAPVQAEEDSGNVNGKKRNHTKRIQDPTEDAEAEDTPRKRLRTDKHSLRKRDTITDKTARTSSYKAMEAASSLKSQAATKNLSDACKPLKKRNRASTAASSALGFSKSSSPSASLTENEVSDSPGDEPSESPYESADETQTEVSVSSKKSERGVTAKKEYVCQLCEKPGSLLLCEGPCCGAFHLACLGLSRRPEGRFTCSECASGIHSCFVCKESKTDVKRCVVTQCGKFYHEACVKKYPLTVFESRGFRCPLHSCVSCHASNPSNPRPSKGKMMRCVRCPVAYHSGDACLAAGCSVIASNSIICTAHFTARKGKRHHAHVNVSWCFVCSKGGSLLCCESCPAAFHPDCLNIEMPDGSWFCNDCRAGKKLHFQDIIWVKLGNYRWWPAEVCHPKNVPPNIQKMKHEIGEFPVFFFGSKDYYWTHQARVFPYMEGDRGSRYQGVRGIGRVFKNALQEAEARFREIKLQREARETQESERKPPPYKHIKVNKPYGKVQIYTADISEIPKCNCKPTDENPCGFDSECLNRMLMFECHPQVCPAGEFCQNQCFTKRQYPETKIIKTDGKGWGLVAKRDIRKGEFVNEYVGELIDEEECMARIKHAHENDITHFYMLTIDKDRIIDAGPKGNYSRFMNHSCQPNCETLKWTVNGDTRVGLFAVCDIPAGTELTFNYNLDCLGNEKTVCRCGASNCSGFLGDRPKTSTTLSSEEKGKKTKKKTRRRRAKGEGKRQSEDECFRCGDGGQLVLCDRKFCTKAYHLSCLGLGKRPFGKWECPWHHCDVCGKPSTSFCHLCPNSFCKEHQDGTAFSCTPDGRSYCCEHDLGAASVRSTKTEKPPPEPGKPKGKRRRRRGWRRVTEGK
The class given is biochemical.

A further experiment addresses T2, Protein skinhead-1 (Caenorhabditis elegans, UniProt P34707).
T2 sequence (P34707 whole entry): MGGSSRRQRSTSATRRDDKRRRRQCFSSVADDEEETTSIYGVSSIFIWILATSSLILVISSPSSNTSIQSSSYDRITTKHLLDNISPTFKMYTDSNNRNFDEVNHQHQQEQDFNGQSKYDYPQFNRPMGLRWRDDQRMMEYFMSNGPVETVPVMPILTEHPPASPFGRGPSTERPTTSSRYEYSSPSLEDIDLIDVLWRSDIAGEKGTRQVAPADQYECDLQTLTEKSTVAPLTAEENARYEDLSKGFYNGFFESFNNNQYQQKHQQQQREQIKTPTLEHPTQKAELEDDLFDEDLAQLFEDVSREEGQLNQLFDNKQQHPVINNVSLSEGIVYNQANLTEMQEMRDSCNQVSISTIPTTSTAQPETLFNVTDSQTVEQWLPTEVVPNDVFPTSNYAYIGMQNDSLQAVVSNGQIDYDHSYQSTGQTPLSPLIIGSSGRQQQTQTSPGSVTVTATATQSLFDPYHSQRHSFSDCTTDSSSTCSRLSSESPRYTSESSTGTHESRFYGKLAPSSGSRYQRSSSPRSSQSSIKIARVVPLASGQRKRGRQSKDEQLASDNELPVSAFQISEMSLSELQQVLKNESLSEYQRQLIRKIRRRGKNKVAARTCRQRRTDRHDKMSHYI
It is filed as functional.

The target in another experiment is T3, Bcl-2-like protein 10 (Homo sapiens, UniProt Q9HD36).
T3 sequence (Q9HD36 whole entry): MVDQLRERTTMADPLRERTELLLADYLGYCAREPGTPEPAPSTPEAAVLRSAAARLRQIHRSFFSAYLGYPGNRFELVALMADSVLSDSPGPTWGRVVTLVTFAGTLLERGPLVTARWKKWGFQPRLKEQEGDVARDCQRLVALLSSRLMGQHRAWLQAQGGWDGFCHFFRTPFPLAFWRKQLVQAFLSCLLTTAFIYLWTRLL
Briefly: Bcl-B/TR3 peptide binding disruption – biochemical, fluorescence polarization, FITC-TR3 peptide, selectivity assay for Bfl-1 inhibitor project, primary screen (AID 748). Background: Fluorescence polarisation rises when a labelled molecule tumbles more slowly, as on binding a larger partner.

Another experiment concerns the target Nonstructural protein 1 (Influenza A virus, UniProt Q194T2). The class given is functional, Influenza A virus (A/California/07/2009(H1N1)).
The target in experiment [2] is T4, Sentrin-specific protease 8 (Homo sapiens, UniProt Q96LD8).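 Also: luminescence read-out of SENP8 inhibition, dose-response confirmation following an ultra-high-throughput screen.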
T4 sequence (Q96LD8 whole entry): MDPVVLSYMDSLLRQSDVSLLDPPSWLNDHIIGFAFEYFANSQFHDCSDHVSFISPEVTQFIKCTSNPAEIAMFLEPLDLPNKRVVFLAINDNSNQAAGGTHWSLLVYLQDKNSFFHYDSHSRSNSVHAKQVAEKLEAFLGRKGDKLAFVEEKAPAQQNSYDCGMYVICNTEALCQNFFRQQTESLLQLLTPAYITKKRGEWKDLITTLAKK
The class given is functional.

A further experiment deals with T5, Caspase-3 (Homo sapiens, UniProt P42574).
T5 sequence (P42574 whole entry): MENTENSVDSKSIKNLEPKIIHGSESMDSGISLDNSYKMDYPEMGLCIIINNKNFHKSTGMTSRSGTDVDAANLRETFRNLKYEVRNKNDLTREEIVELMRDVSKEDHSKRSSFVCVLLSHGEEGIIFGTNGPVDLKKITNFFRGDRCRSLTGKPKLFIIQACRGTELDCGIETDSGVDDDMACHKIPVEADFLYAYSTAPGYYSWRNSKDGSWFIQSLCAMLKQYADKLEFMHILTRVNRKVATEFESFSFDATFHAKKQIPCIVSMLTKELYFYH
It is filed as functional.

The source made the active and inactive calls.

Nonstructural protein 1, sequence (Q194T2 whole entry): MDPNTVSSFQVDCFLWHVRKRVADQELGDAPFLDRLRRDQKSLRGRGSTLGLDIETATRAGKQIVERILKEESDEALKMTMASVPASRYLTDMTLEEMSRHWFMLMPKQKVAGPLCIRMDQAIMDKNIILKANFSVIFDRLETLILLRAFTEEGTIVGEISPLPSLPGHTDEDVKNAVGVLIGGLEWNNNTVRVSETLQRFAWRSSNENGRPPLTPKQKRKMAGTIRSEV

What is called AC50 is the concentration giving half of the maximal activity seen. Usually IC50 stands for the concentration needed to halve the response being measured. As to `CC1CC(C)CN(C(=O)c2ccc3c(c2NCCO)C(=O)c2ccccc2C3=O)C1` (stereo unspecified), in experiment [1], the AC50 is 19.3 µM (active). The IC50 at Protein skinhead-1 was > 100 µM (inactive); on Bcl-2-like protein 10 it was 29.1 µM (active); at Nonstructural protein 1 it was 13 µM (active).

Regarding `CCC(=O)N(C1=C(NC)C(=O)c2ccccc2C1=O)C(C)C`, the IC50 was 25 µM (active) in experiment [2] and 6.86 µM (active) at Caspase-3.
